The target of the test is T1, Gamma-aminobutyric acid receptor subunit alpha-3 (Homo sapiens, UniProt P34903).
T1 sequence (P34903 whole entry): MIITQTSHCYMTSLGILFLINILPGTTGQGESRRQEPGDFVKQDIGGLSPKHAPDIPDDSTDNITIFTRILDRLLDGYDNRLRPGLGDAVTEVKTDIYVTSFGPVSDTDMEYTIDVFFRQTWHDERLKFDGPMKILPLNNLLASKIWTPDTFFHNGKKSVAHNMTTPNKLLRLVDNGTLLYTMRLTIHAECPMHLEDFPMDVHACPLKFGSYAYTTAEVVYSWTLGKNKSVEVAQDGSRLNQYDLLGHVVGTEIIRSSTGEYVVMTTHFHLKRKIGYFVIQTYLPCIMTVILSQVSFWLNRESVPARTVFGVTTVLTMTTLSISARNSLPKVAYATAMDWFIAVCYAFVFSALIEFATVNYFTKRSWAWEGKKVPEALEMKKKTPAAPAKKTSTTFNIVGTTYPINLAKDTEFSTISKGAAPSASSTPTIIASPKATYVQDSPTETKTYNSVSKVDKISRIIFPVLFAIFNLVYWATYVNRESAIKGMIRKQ

Molecules are shown by their SMILES.

The molecule `O=c1o[nH]c2c1CCNC2` [NSC_130546] yielded a Ki of 7.9 µM.
In turn, `O=c1[nH][nH]c2c1CCNC2` [THIP, Aza-] had a Ki of more than 10 µM.

As usually defined, the Ki is the equilibrium dissociation constant of an inhibitor or competing ligand from its target.

The values are drawn from BindingDB's records for doi:10.2174/1568007033482805 (University of Sydney, 2003).
